The text below walks through data of patent publication US7964623B2, “Tricyclic benzopyrane compound” (Nissan Chemical Industries Ltd., priority 2004, dated 2011).

One series concerns atrium. The series can be described thus: Effects on the atrial effective refractory period (S1-S2 extrastimulus technique during bilateral vagal nerve stimulation) in anesthetized beagles. The conditions noted are these: intravenous, from 5 minutes after administration, basic cycle length 300 msec. The format is in vivo. The procedure:
Effects on the Effective Refractory Period
Beagles were anesthetized with pentobarbital sodium and thoracotomy was done along the median line under a respirator and the incision was made on the pericardium to expose the heart. An electrocardiogram (ECG) was recorded using bipolar electrodes attached to the surface of the right atrial free wall, right atrial auricle, and right ventricular free wall. The vagal nerves were stimulated using an electrostimulation device with Nichrome wires inserted into the vagal nerves in the neck bilaterally. The conditions for electrostimulation to the vagal nerves were set such that the RR intervals on ECG were prolonged by about 100 msec compared with those before the stimulation was started.
Atrial and ventricular effective refractory periods were determined by S1-S2 extrastimulus technique at basic cycle length of 300 msec during bilateral vagal nerve stimulation, using programmable electric stimulator. A train of 10 basic stimuli (S1) was followed by a premature extrastimulus (S2) at 2 times diastolic threshold.
For evaluation of drug effects, the atrial and ventricular effective refractory periods were determined before drug administration, then respective compound was administrated intravenously at the dose of 0.3 mg/kg or 0.6 mg/kg, and the atrial and ventricular effective refractory periods were determined from 5 minutes after the administration.
The results were shown as the prolongation time on the atrial and ventricular effective refractory periods, i.e. [effective refractory period after drug administration]−[effective refractory period before drug administration] (msec).

In general, melting point refers to the temperature of the solid-liquid transition. Take `Cc1cc(C#N)nc2cc3c(cc12)OC(C)(C)C(O)C3NCCc1ccccc1.O=C(O)/C=C\C(=O)O` (racemic) [Synthesis Example 7, (±)-trans-3-Hydroxy-2,2,9-trimethyl-4-[(2-phenylethyl)amino]-3,4-dihydro-2H-pyrano[2,3-g]quinoline-7-carbonitrile 1 maleate]: the melting point is 218 to 220 °C (dec.). In addition, in the series with atrium (0.6 mg/kg), the “Atrial Refractory Period (prolongation time on the atrial effective refractory period)” value (shortened to “Atrial Refractory Period”) came out at 25 ms. On the same counts, the results for `Cc1cc(Cl)nc2cc3c(cc12)OC(C)(C)C(O)C3NCCc1ccccc1.O=C(O)/C=C\C(=O)O` (racemic) [Synthesis Example 6, (±)-trans-7-Chloro-2,2,9-trimethyl-4-[(2-phenylethyl)amino]-3,4-dihydro-2H-pyrano[2,3-g]quinolin-3-ol 1 maleate] are 221 to 226 °C (dec.) and 20 ms. In turn, `Cc1cc(CO)nc2cc3c(cc12)OC(C)(C)[C@H](O)[C@H]3NCCc1ccc(F)cc1` (relative stereo) [Synthesis Example 76, (3R*,4S*)-4-{[2-(4-fluorophenyl)ethyl]amino}-7-hydroxymethyl-2,2,9-trimethyl-3,4-dihydro-2H-pyrano[2,3-g]quinolin-3-ol] came in with a melting point of 147 to 152 °C. In the case of `CC1(C)Oc2cc3nccnc3cc2[C@H](NCCC2CCCCC2)[C@H]1O.Cl` (relative stereo) [Synthesis Example 69, (3R*,4S*)-4-[(2-cyclohexylethyl)amino)]-2,2-dimethyl-3,4-dihydro-2H-pyrano[2,3-g]quinoxalin-3-ol hydrochloride], the melting point is 258 to 259 °C (dec.). The “Atrial Refractory Period” value in the series on atrium (0.3 mg/kg) is 37 ms.

Consider `Cc1ccc2cc3c(cc2n1)[C@H](NCCc1ccccc1)[C@@H](O)C(C)(C)O3.O=C(O)/C=C\C(=O)O` (relative stereo) [Synthesis Example 13, (3R*,4S*)-2,2,7-trimethyl-4-[(2-phenylethyl)amino]-3,4-dihydro-2H-pyrano[2,3-g]quinolin-3-ol 1 maleate], for which the melting point is 214 to 217 °C (dec.).

For the compound `CC1(C)Oc2ccc3ncccc3c2C(NCCc2ccccc2)C1O` (racemic) [Synthesis Example 8, (±)-trans-3,3-Dimethyl-1-[(2-phenylethyl)amino]-2,3-dihydro-1H-pyrano[3,2-f]quinolin-2-ol], the melting point was 180 to 182 °C. For the same compound, the “Atrial Refractory Period” value in the series with atrium (0.6 mg/kg) was found to be 23 ms. As to `CC1(C)Oc2cc3cccnc3cc2[C@H](NCCc2ccccc2)[C@H]1O.O=C(O)/C=C\C(=O)O` (relative stereo) [Synthesis Example 77, (3R*,4S*)-2,2-dimethyl-4-[(2-phenylethyl)amino]-3,4-dihydro-2H-pyrano[2,3-g]quinolin-3-ol 1 maleate], the melting point was 187 to 192 °C (dec.). Moreover, the “Atrial Refractory Period” value with atrium (0.3 mg/kg) is 25 ms. For the compound `Cc1cnc2cc3c(cc2n1)OC(C)(C)[C@H](O)[C@H]3NCCc1ccccc1.O=C(O)/C=C\C(=O)O` (relative stereo) [Synthesis Example 68, (3R*,4S*)-2,2,8-trimethyl-4-[(2-phenylethyl)amino]-3,4-dihydro-2H-pyrano[2,3-g]quinoxalin-3-ol 1 maleate], the melting point was 189 to 192 °C (dec.). The same measure, in the same setting: the result for `Cc1cc(C(N)=O)nc2cc3c(cc12)OC(C)(C)[C@H](O)[C@H]3NCCc1ccccc1` (relative stereo) [Synthesis Example 15, (3R*,4S*)-3-hydroxy-2,2,9-trimethyl-4-[(2-phenylethyl)amino]-3,4-dihydro-2H-pyrano[2,3-g]quinoline-7-carboxamide] reads 168 to 169 °C.

Turning to `CC1(C)Oc2ccc3ncccc3c2C(NCCc2ccccc2)C1O` (stereo not drawn) [Synthesis Example 17, (1R*,2R*)-3,3-dimethyl-1-[(2-phenylethyl)amino]-2,3-dihydro-1H-pyrano[3,2-f]quinolin-2-ol], the melting point was 170 to 171 °C.

Compound `CC1(C)Oc2ccc3nc(C#N)ccc3c2[C@@H](NCCc2ccccc2)[C@@H]1O` (racemic) [Synthesis Example 10, (±)-trans-2-Hydroxy-3,3-dimethyl-1-[(2-phenylethyl)amino]-2,3-dihydro-1H-pyrano[3,2-f]quinoline-8-carbonitrile] had a melting point of 93 to 96 °C.

For `Cc1cc(CN)nc2cc3c(cc12)OC(C)(C)[C@H](O)[C@H]3NCCc1ccccc1.O=C(O)/C=C\C(=O)O` (relative stereo) [Synthesis Example 83, (3R*,4S*)-7-aminomethyl-2,2,9-trimethyl-4-[(2-phenylethyl)amino]-3,4-dihydro-2H-pyrano[2,3-g]quinolin-3-ol 2 maleate], the melting point is 136 to 140 °C. The compound `Cc1cnc2cc3c(cc2c1C)OC(C)(C)C(O)C3NCCc1ccccc1.O=C(O)/C=C\C(=O)O` (racemic) [Synthesis Example 3, (±)-trans-2,2,8,9-Tetramethyl-4-[(2-phenylethyl)amino]-3,4-dihydro-2H-pyrano[2,3-g]quinolin-3-ol 1 maleate] gave a melting point of 199 to 203 °C. On the same count and under the same terms, the result for `CC1(C)Oc2ccc3nc(C(N)=O)ccc3c2[C@@H](NCCc2ccccc2)[C@@H]1O` (racemic) [Synthesis Example 11, (±)-trans-2-Hydroxy-3,3-dimethyl-1-[(2-phenylethyl)amino]-2,3-dihydro-1H-pyrano[3,2-f]quinoline-8-carboxamide] reads 197 to 199 °C; that for `Cc1cc(C)c2cc3c(cc2n1)[C@@H](NCCc1ccccc1)[C@H](O)C(C)(C)O3.O=C(O)/C=C\C(=O)O` (relative stereo) [Synthesis Example 51, (3R*,4R*)-2,2,7,9-tetramethyl-4-[(2-phenethyl)amino]-3,4-dihydro-2H-pyrano[2,3-g]quinolin-3-ol 1 maleate], 215 to 216 °C (dec.).

In the case of `CCCCCN[C@H]1c2cc3nccnc3cc2OC(C)(C)[C@@H]1O.Cl` (relative stereo) [Synthesis Example 63, (3R*,4S*)-2,2-dimethyl-4-pentylamino-3,4-dihydro-2H-pyrano[2,3-g]quinoxalin-3-ol hydrochloride], the melting point is 209 to 212 °C (dec.). Besides, in the series on atrium (0.3 mg/kg), the “Atrial Refractory Period” value amounted to 23 ms.

Consider `Cc1cc(Cl)nc2cc3c(cc12)OC(C)(C)[C@H](O)[C@H]3NCCC1CCCCC1.Cl` (relative stereo) [Synthesis Example 53, (3R*,4S*)-7-chloro-2,2,9-trimethyl-4-[(2-cyclohexylethyl)amino]-3,4-dihydro-2H-pyrano[2,3-g]quinolin-3-ol hydrochloride], for which the melting point is 294 to 295 °C (dec.). In the series on atrium (0.3 mg/kg), the “Atrial Refractory Period” value was determined as 30 ms. On to `CC1(C)Oc2cc3c(CO)ccnc3cc2[C@H](NCCc2ccccc2)[C@H]1O.O=C(O)/C=C\C(=O)O` (relative stereo) [Synthesis Example 84, (3R*,4S*)-9-hydroxymethyl-2,2-dimethyl-4-[(2-phenylethyl)amino)]-3,4-dihydro-2H-pyrano[2,3-g]quinolin-3-ol 1 maleate], for which the melting point is 163 to 169 °C (dec.).

With `Cc1cc(C)c2cc3c(cc2n1)C(NCCc1ccccc1)C(O)C(C)(C)O3` (racemic) [Synthesis Example 2, (±)-trans-2,2,7,9-Tetramethyl-4-[(2-phenylethyl)amino]-3,4-dihydro-2H-pyrano[2,3-g]quinolin-3-ol], the melting point is 144 to 147 °C. In the series on atrium (0.6 mg/kg), the “Atrial Refractory Period” value was 21 ms.

`Cc1cc(Cl)nc2cc3c(cc12)OC(C)(C)[C@@H](O)[C@@H]3NCCc1ccccc1.O=C(O)/C=C\C(=O)O` (relative stereo) [Synthesis Example 50, (3S*,4R*)-7-chloro-2,2,9-trimethyl-4-[(2-phenylethyl)amino]-3,4-dihydro-2H-pyrano[2,3-g]quinolin-3-ol 1 maleate]: the melting point fell in the range of 240 to 242 °C. Still for that read-out and setting: the same measure for `Cc1cc(Cl)[n+]([O-])c2cc3c(cc12)OC(C)(C)[C@H](O)[C@H]3NCCc1ccc(F)cc1.Cl` (relative stereo): 193 to 198 °C (dec.). For `CCCCCN[C@H]1c2cc3c(cc2OC(C)(C)[C@@H]1O)c(C)cc(Cl)[n+]3[O-].Cl` (relative stereo), the melting point was 226 to 230 °C (dec.).
